Measured values as given in ChEMBL document CHEMBL4118131, “Synthesis of 1,2,4-triazole-linked urea/thiourea conjugates as cytotoxic and apoptosis inducing agents” (Bioorg Med Chem Lett, 2018).
Calls of active or inactive are those of the source. The rule behind the calls is not given here.

What was measured:
B16-F10 = assay: Cytotoxicity in mouse B16/F10 cells assessed as reduction in cell viability incubated for 48 hrs by MTT assay; format: functional, cell-based; details: B16-F10, 48 h
MCF7 [1] = assay: Cytotoxicity in human MCF7 cells assessed as reduction in cell viability incubated for 48 hrs by MTT assay; format: functional, cell-based; details: MCF7, 48 h
MDA-MB-231 = assay: Cytotoxicity in human MDA-MB-231 cells assessed as reduction in cell viability incubated for 48 hrs by MTT assay; format: functional, cell-based; details: MDA-MB-231, 48 h
A549 = assay: Cytotoxicity in human A549 cells assessed as reduction in cell viability incubated for 48 hrs by MTT assay; format: functional, cell-based; details: A549, 48 h
DU-145 = assay: Cytotoxicity in human DU145 cells assessed as reduction in cell viability incubated for 48 hrs by MTT assay; format: functional, cell-based; details: DU-145, 48 h
MCF7 [2] = assay: Induction of apoptosis in human MCF7 cells assessed as early apoptosis cells level at 12 uM incubated for 48 hrs by Annexin V and propidium iodide staining based flow cytometry (reference value: 11.54%); format: functional
MCF7 [3] = assay: Induction of cell cycle arrest in human MCF7 cells assessed as accumulation at S phase at 4 uM incubated for 48 hrs by propidium iodide staining based flow cytometry (reference value: 12.28%); format: functional
MCF7 [4] = assay: Induction of apoptotic morphological changes in human MCF7 cells assessed as induction of membrane blebbing at 4 uM incubated for 48 hrs by AO/EB staining staining based fluorescence microscopy; format: functional, cell-based
MCF7 [5] = assay: Inhibition of colony formation in human MCF7 cells assessed as reduction in colony count incubated for 24 hrs by crystal violet staining based clonogenic cell reproduction assay; format: functional
L132 = assay: Cytotoxicity in human L-132 cells assessed as reduction in cell viability incubated for 48 hrs by MTT assay; format: cell-based; details: L132, 48 h
MCF7 [6] = assay: Induction of apoptosis in human MCF7 cells assessed as late apoptosis cells level at 4 uM incubated for 48 hrs by Annexin V and propidium iodide staining based flow cytometry (reference value: 7.4%); format: functional
MCF7 [7] = assay: Induction of cell cycle arrest in human MCF7 cells assessed as accumulation at G0/G1 phase at 4 uM incubated for 48 hrs by propidium iodide staining based flow cytometry (reference value: 53.01%); format: functional
MCF7 [8] = assay: Induction of apoptotic nuclear morphological changes in human MCF7 cells assessed as induction of horse shoe shaped nucleus at 12 uM incubated for 48 hrs by DAPI nuclear staining based fluorescence microscopy; format: functional, cell-based
MCF7 [9] = assay: Induction of cell cycle arrest in human MCF7 cells assessed as accumulation at G0/G1 phase at 8 uM incubated for 48 hrs by propidium iodide staining based flow cytometry (reference value: 53.01%); format: functional
MCF7 [10] = assay: Induction of apoptosis in human MCF7 cells assessed as necrotic cells level at 8 uM incubated for 48 hrs by Annexin V and propidium iodide staining based flow cytometry (reference value: 0.46%); format: functional
MCF7 [11] = assay: Induction of apoptotic nuclear morphological changes in human MCF7 cells assessed as induction of DNA fragmentation at 12 uM incubated for 48 hrs by DAPI nuclear staining based fluorescence microscopy; format: functional, cell-based
[12] = Selectivity index, ratio of IC50 for cytotoxicity in human L-132 cells to IC50 for cytotoxicity in human MCF7 cells; format: toxicity, cell-based; details: L-132 cells and MCF7 cells, read-out: Ratio IC50
MCF7 [13] = assay: Induction of apoptotic nuclear morphological changes in human MCF7 cells assessed as induction of cell shrinkage and round shape cells at 4 to 8 uM incubated for 48 hrs by DAPI nuclear staining based fluorescence microscopy; format: functional
MCF7 [14] = assay: Induction of apoptotic morphological changes in human MCF7 cells assessed as induction of DNA fragmentation at 8 uM incubated for 48 hrs by AO/EB staining staining based fluorescence microscopy; format: functional, cell-based
MCF7 [15] = assay: Induction of apoptosis in human MCF7 cells assessed as late apoptosis cells level at 8 uM incubated for 48 hrs by Annexin V and propidium iodide staining based flow cytometry (reference value: 7.4%); format: functional
MCF7 [16] = assay: Induction of cell cycle arrest in human MCF7 cells assessed as accumulation at S phase at 8 uM incubated for 48 hrs by propidium iodide staining based flow cytometry (reference value: 12.28%); format: functional
MCF7 [17] = assay: Induction of apoptosis in human MCF7 cells assessed as early apoptosis cells level at 4 uM incubated for 48 hrs by Annexin V and propidium iodide staining based flow cytometry (reference value: 11.54%); format: functional
MCF7 [18] = assay: Induction of cell cycle arrest in human MCF7 cells assessed as accumulation at subG1 phase at 8 uM incubated for 48 hrs by propidium iodide staining based flow cytometry (reference value: 0.88%); format: functional
MCF7 [19] = assay: Induction of cell cycle arrest in human MCF7 cells assessed as accumulation at G2/M phase at 4 uM incubated for 48 hrs by propidium iodide staining based flow cytometry (reference value: 32.51%); format: functional
MCF7 [20] = assay: Induction of apoptosis in human MCF7 cells assessed as necrotic cells level at 4 uM incubated for 48 hrs by Annexin V and propidium iodide staining based flow cytometry (reference value: 0.46%); format: functional
MCF7 [21] = assay: Induction of cell cycle arrest in human MCF7 cells assessed as accumulation at G2/M phase at 8 uM incubated for 48 hrs by propidium iodide staining based flow cytometry (reference value: 32.51%); format: functional
MCF7 [22] = assay: Induction of apoptosis in human MCF7 cells assessed as viable cells level at 8 uM incubated for 48 hrs by Annexin V and propidium iodide staining based flow cytometry (reference value: 80.6%); format: functional
MCF7 [23] = assay: Induction of apoptosis in human MCF7 cells assessed as necrotic cells level at 12 uM incubated for 48 hrs by Annexin V and propidium iodide staining based flow cytometry (reference value: 0.46%); format: functional
MCF7 [24] = assay: Induction of late apoptosis in human MCF7 cells at 12 uM incubated for 48 hrs by AO/EB staining staining based fluorescence microscopy; format: functional, cell-based
MCF7 [25] = assay: Induction of cell cycle arrest in human MCF7 cells assessed as accumulation at subG1 phase at 4 uM incubated for 48 hrs by propidium iodide staining based flow cytometry (reference value: 0.88%); format: functional
MCF7 [26] = assay: Induction of apoptotic morphological changes in human MCF7 cells assessed as induction of membrane blebbing at 8 uM incubated for 48 hrs by AO/EB staining staining based fluorescence microscopy; format: functional, cell-based
MCF7 [27] = assay: Induction of apoptotic nuclear morphological changes in human MCF7 cells incubated for 48 hrs by DAPI nuclear staining based fluorescence microscopy; format: functional, cell-based
MCF7 [28] = assay: Induction of apoptosis in human MCF7 cells incubated for 48 hrs by Annexin V and propidium iodide staining based flow cytometry (reference value: 7.4%); format: functional, cell-based
MCF7 [29] = assay: Induction of apoptosis in human MCF7 cells assessed as viable cells level at 4 uM incubated for 48 hrs by Annexin V and propidium iodide staining based flow cytometry (reference value: 80.6%); format: functional
MCF7 [30] = assay: Induction of apoptosis in human MCF7 cells assessed as late apoptosis cells level at 12 uM incubated for 48 hrs by Annexin V and propidium iodide staining based flow cytometry (reference value: 7.4%); format: functional
MCF7 [31] = assay: Induction of apoptotic morphological changes in human MCF7 cells assessed as induction of chromatin condensation at 8 uM incubated for 48 hrs by AO/EB staining staining based fluorescence microscopy; format: functional, cell-based
MCF7 [32] = assay: Induction of apoptosis in human MCF7 cells assessed as viable cells level at 12 uM incubated for 48 hrs by Annexin V and propidium iodide staining based flow cytometry (reference value: 80.6%); format: functional
MCF7 [33] = assay: Induction of apoptosis in human MCF7 cells assessed as early apoptosis cells level at 8 uM incubated for 48 hrs by Annexin V and propidium iodide staining based flow cytometry (reference value: 11.54%); format: functional

COc1ccc(CN(C(=O)Nc2ccc(Cl)cc2)n2cnnc2)cc1OC
IC50 (B16-F10): 42.2 µM
IC50 (MCF7 [1]): > 50 µM
IC50 (MDA-MB-231): > 50 µM
IC50 (A549): 44.2 µM
IC50 (DU-145): 20.4 µM

CC1CCC(NC(=O)N(Cc2ccccn2)n2cnnc2)CC1 (stereo not given)
IC50 (B16-F10): 39.7 µM
IC50 (MCF7 [1]): 34 µM
IC50 (MDA-MB-231): 33.2 µM
IC50 (A549): 43.7 µM
IC50 (DU-145): 20.1 µM

N#Cc1ccc(CN(C(=S)Nc2cc(C(F)(F)F)cc(C(F)(F)F)c2)n2cnnc2)cc1
Activity (MCF7 [2]): 7.53%
IC50 (B16-F10): 4.51 µM
Activity (MCF7 [3]): 11.33%
Activity (MCF7 [4]): Active
inhibition (MCF7 [5]): Dose-dependent effect
IC50 (MCF7 [1]): 7.22 µM
IC50 (L132): 15.2 µM
Activity (MCF7 [6]): 24.61%
IC50 (MDA-MB-231): 9.28 µM
Activity (MCF7 [7]): 61.18%
Activity (MCF7 [8]): Active
Activity (MCF7 [9]): 69.97%
Activity (MCF7 [10]): 2.78%
Activity (MCF7 [11]): Active
selectivity ratio [12]: 2
Activity (MCF7 [13]): Active
Activity (MCF7 [14]): Active
Activity (MCF7 [15]): 24.61%
IC50 (A549): 9.39 µM
Activity (MCF7 [16]): 10.13%
Activity (MCF7 [17]): 9.63%
Activity (MCF7 [18]): 3.57%
Activity (MCF7 [19]): 25.01%
Activity (MCF7 [20]): 2.78%
Activity (MCF7 [21]): 14.34%
Activity (MCF7 [22]): 62.98%
Activity (MCF7 [23]): 9.26%
Activity (MCF7 [24]): Active
Activity (MCF7 [25]): 1.18%
Activity (MCF7 [26]): Active
Activity (MCF7 [27]): Dose-dependent effect
IC50 (DU-145): 11.8 µM
Activity (MCF7 [28]): Dose-dependent effect
Activity (MCF7 [29]): 62.98%
Activity (MCF7 [30]): 38.35%
Activity (MCF7 [31]): Active
Activity (MCF7 [32]): 44.86%
Activity (MCF7 [33]): 9.63%

O=C(Nc1ccccc1)N(Cc1ccccn1)n1cnnc1
IC50 (B16-F10): 23.7 µM
IC50 (MCF7 [1]): > 50 µM
IC50 (MDA-MB-231): > 50 µM
IC50 (A549): 24.9 µM
IC50 (DU-145): 20.2 µM

COc1ccc(OC)c(CN(C(=S)Nc2ccc(C)cc2)n2cnnc2)c1
IC50 (B16-F10): 20.7 µM
IC50 (MCF7 [1]): > 50 µM
IC50 (MDA-MB-231): > 50 µM
IC50 (A549): 17.4 µM
IC50 (DU-145): 20.9 µM

Cc1ccsc1CN(C(=O)Nc1ccccc1)n1cnnc1
IC50 (B16-F10): 31.1 µM
IC50 (MCF7 [1]): > 50 µM
IC50 (MDA-MB-231): > 50 µM
IC50 (A549): 22.1 µM
IC50 (DU-145): > 50 µM

CCc1ccc(NC(=S)N(Cc2cc(OC)c(OC)c(OC)c2)n2cnnc2)cc1
IC50 (B16-F10): 24.7 µM
IC50 (MCF7 [1]): 24.8 µM
IC50 (MDA-MB-231): 24.8 µM
IC50 (A549): 17.2 µM
IC50 (DU-145): 21.4 µM

O=C(NC1CCCCC1)N(Cc1ccccn1)n1cnnc1
IC50 (B16-F10): 35.8 µM
IC50 (MCF7 [1]): 46.9 µM
IC50 (MDA-MB-231): 44.1 µM
IC50 (A549): > 50 µM
IC50 (DU-145): > 50 µM

CCc1ccc(NC(=S)N(Cc2ccc(OC)c(OC)c2)n2cnnc2)cc1
IC50 (B16-F10): 22.9 µM
IC50 (MCF7 [1]): > 50 µM
IC50 (MDA-MB-231): > 50 µM
IC50 (A549): 28.4 µM
IC50 (DU-145): > 50 µM

COc1ccc(CN(C(=O)Nc2ccc(Cl)c(C(F)(F)F)c2)n2cnnc2)cc1OC
IC50 (B16-F10): > 50 µM
IC50 (MCF7 [1]): > 50 µM
IC50 (MDA-MB-231): > 50 µM
IC50 (A549): 29.3 µM
IC50 (DU-145): > 50 µM

N#Cc1ccc(CN(C(=O)Nc2ccccc2)n2cnnc2)cc1
IC50 (B16-F10): 34.7 µM
IC50 (MCF7 [1]): > 50 µM
IC50 (MDA-MB-231): > 50 µM
IC50 (A549): > 50 µM
IC50 (DU-145): > 50 µM

O=C(NCc1ccccc1)N(Cc1ccccn1)n1cnnc1
IC50 (B16-F10): 31 µM
IC50 (MCF7 [1]): > 50 µM
IC50 (MDA-MB-231): > 50 µM
IC50 (A549): 22 µM
IC50 (DU-145): 21.2 µM

O=c1[nH]cc(F)c(=O)[nH]1 [FLUOROURACIL]
IC50 (MCF7 [1]): 16.7 µM
IC50 (DU-145): 39.2 µM
